Laboratory results published in patent publication US20140155406A1, “4-IMIDAZOPYRIDAZIN-1-YL-BENZAMIDES AND 4-IMIDAZOTRIAZIN-1-YL-BENZAMIDES BTK INHIBITORS” (priority 2011, published 2014).

Columns and labels:
Format in all cases: biochemical
Lyn enzyme = target: T1, Lyn enzyme (Homo sapiens, UniProt P07948); experiment: Lyn enzyme activity, IMAP fluorescence polarization assay; details: 60 min pre-incubation, 2 μM ATP (Km)
T1 construct: purchased Millipore 14-510
Method: Lyn enzyme activity is measured using the IMAP (immobilized metal ion affinity-based fluorescence polarization) assay as outlined below.
Lyn enzyme (Millipore catalog#14-510), is diluted to 250 mU/mL in KR buffer (10 mM Tris-HCl, 10 mM MgCl2, 0.01% Tween-20, 0.05% NaN3, 1 mM DTT, 2 mM MnCl2, pH 7.2). Serial dilution log 10 from 2 mM to 63.2 nM of test compounds are made in 100% DMSO. The dilutions in DMSO are then diluted 50-fold in KR-buffer of which 5 μl is used in the assay, leading to a final compound concentration range in the assay from 10 μM to 0.316 nM. 5 μL/well of test compound in KR buffer (final DMSO concentration in the assay is 1%) is mixed with 5 μl/well of 250 mU/mL Lyn enzyme (final concentration in the assay is 62.5 mU/mL). Test compounds and Lyn enzyme are pre-incubated 60 minutes at room temperature, before adding 5 μL/well of 400 nM Fluorescin labeled substrate peptide (Blk/Lyntide substrate, e.g. #R7188/#R7233, Molecular Devices) in KR-buffer. Final peptide substrate concentration in assay is 100 nM. The kinase assay is started by adding 5 μL/well of 8 μM ATP in KR-buffer (final ATP concentration is 2 μM ATP, Km ATP in Lyn IMAP assay). Following incubation for 2 h at room temperature the enzyme reaction is stopped by adding 40 μL/well IMAP Progressive Binding Solution (according to suppliers (Molecular Devices) protocol using 75% 1× buffer A and 25% 1× buffer B with 1:600 Progressive Binding Solution). After 60 min incubation at room temperature in the dark the FP signal is read. Fluorescence at 535 nm is measured using parallel and perpendicular filters to determine differences in rotation due to binding of the phosphorylated substrate peptide to the beads. Values are calculated as percentage of the difference in readout (ΔmPi) of the controls with and without ATP. EC50 values are determined by curve fitting of the experimental results using Activity Base.

FynT enzyme = target: T2, FynT enzyme (Homo sapiens, UniProt P06241); experiment: FynT enzyme activity, IMAP fluorescence polarization assay; details: 60 min pre-incubation, 0.2 μM ATP (Km)
T2 construct: purchased Biomol SE-287
T2 sequence (P06241 1-534 isoform P06241-2): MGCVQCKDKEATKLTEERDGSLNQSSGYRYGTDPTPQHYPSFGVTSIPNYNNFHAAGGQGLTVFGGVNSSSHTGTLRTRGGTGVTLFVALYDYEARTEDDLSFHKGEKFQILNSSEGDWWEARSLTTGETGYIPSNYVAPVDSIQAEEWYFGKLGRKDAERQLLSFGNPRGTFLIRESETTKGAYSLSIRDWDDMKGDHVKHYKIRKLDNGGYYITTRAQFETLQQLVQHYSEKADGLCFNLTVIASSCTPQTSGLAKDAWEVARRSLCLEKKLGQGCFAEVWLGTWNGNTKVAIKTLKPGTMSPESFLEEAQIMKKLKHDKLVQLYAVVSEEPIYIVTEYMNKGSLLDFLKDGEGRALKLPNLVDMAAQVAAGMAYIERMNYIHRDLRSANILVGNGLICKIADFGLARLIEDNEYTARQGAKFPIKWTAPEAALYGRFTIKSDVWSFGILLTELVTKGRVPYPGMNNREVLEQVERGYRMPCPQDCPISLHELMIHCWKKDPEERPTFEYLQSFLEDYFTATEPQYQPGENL
Method: FynT enzyme activity is measured using the IMAP (immobilized metal ion affinity-based fluorescence polarization) assay as outlined below.
FynT enzyme (Biomol catalog# SE-287), is diluted to 0.5 μg/mL in KR buffer (10 mM Tris-HCl, 10 mM MgCl2, 0.01% Tween-20, 0.05% NaN3, 1 mM DTT, 2 mM MnCl2, pH 7.2). Serial dilution log 10 from 2 mM to 63.2 nM of test compounds are made in 100% DMSO. The dilutions in DMSO are then diluted 50-fold in KR-buffer of which 5 μl is used in the assay, leading to a final compound concentration range in the assay from 10 μM to 0.316 nM. 5 μL/well of test compound in KR buffer (final DMSO concentration in the assay is 1%) is mixed with 5 μl/well of 0.5 μg/mL FynT enzyme (final concentration in the assay is 125 ng/mL). Test compounds and FynT enzyme are pre-incubated 60 minutes at room temperature, before adding 5 μL/well of 400 nM Fluorescin labeled substrate peptide (p34cdc2 substrate peptide, e.g. #R7157/#R7172, Molecular Devices) in KR-buffer. Final peptide substrate concentration in assay is 100 nM. The kinase assay is started by adding 5 μL/well of 0.8 μM ATP in KR-buffer (final ATP concentration is 0.2 μM ATP, Km ATP in FynT IMAP assay). Following incubation for 2 h at room temperature the enzyme reaction is stopped by adding 40 μL/well IMAP Progressive Binding Solution (according to suppliers (Molecular Devices) protocol using 75% 1× buffer A and 25% 1× buffer B with 1:600 Progressive Binding Solution). After 60 min incubation at room temperature in the dark the FP signal is read. Fluorescence at 535 nm is measured using parallel and perpendicular filters to determine differences in rotation due to binding of the phosphorylated substrate peptide to the beads. Values are calculated as percentage of the difference in readout (ΔmPi) of the controls with and without ATP. EC50 values are determined by curve fitting of the experimental results using Activity Base.

Lck enzyme = target: T3, Lck enzyme (Homo sapiens, UniProt P06239); experiment: Lck enzyme activity, IMAP fluorescence polarization assay; details: 60 min pre-incubation, 6 μM ATP (Km)
T3 construct: purchased Millipore 14-442
T3 sequence (P06239 whole entry): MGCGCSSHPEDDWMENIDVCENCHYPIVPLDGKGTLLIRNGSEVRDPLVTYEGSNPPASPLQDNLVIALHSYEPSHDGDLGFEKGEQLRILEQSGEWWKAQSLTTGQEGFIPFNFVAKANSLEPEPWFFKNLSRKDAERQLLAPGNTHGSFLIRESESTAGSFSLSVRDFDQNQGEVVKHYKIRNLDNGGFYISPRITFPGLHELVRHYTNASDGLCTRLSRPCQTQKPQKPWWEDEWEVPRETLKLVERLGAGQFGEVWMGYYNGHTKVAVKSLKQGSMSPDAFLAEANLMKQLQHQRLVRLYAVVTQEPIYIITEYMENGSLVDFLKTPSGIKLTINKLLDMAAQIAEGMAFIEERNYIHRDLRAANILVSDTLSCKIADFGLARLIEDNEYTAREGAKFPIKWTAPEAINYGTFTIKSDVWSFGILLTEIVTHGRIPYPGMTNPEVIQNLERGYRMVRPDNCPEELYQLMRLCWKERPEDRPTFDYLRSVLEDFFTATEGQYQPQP
Method: Lck enzyme activity is measured using the IMAP (immobilized metal ion affinity-based fluorescence polarization) assay as outlined below.
Lck enzyme (Millipore catalog#14-442), is diluted to 0.4 U/mL in KR buffer (10 mM Tris-HCl, 10 mM MgCl2, 0.01% Tween-20, 0.05% NaN3, 1 mM DTT, 2 mM MnCl2, pH 7.2). Serial dilution log 10 from 2 mM to 63.2 nM of test compounds are made in 100% DMSO. The dilutions in DMSO are then diluted 50-fold in KR-buffer of which 5 μl is used in the assay, leading to a final compound concentration range in the assay from 10 μM to 0.316 nM. 5 μL/well of test compound in KR buffer (final DMSO concentration in the assay is 1%) is mixed with 5 μl/well of 0.4 U/mL Lck enzyme (final concentration in the assay is 0.1 U/mL). Test compounds and Lck enzyme are pre-incubated 60 minutes at room temperature, before adding 5 μL/well of 400 nM Fluorescin labeled substrate peptide (p34cdc2 substrate peptide, e.g. #R7157/#R7172, Molecular Devices) in KR-buffer. Final peptide substrate concentration in assay is 100 nM. The kinase assay is started by adding 5 μL/well of 24 μM ATP in KR-buffer (final ATP concentration is 6 μM ATP, Km ATP in Lck IMAP assay). Following incubation for 2 h at room temperature the enzyme reaction is stopped by adding 40 μL/well IMAP Progressive Binding Solution (according to suppliers (Molecular Devices) protocol using 75% 1× buffer A and 25% 1× buffer B with 1:600 Progressive Binding Solution). After 60 min incubation at room temperature in the dark the FP signal is read. Fluorescence at 535 nm is measured using parallel and perpendicular filters to determine differences in rotation due to binding of the phosphorylated substrate peptide to the beads. Values are calculated as percentage of the difference in readout (ΔmPi) of the controls with and without ATP. EC50 values are determined by curve fitting of the experimental results using Activity Base.

Measured: EC50

T1 sequence (P07948 whole entry): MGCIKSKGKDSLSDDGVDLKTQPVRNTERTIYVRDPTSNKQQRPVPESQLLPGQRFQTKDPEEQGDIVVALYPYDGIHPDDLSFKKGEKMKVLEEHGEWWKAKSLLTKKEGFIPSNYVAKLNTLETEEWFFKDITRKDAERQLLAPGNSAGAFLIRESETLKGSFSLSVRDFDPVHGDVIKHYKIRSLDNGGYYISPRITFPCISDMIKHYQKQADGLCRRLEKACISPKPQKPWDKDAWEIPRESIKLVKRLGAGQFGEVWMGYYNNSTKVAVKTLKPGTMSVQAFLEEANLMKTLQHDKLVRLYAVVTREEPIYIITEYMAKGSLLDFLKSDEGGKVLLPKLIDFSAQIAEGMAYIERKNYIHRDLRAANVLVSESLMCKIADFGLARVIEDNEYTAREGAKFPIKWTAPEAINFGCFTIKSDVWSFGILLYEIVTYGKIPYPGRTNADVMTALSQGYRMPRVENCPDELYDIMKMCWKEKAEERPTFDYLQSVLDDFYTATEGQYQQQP

CC#CC(=O)N1CCCC[C@H]1c1nc(-c2ccc(C(=O)Nc3cc(C(F)(F)F)ccn3)cc2)c2c(C)nccn12 [Example 29, (S)-4-(3-(1-but-2-ynoylpiperidin-2-yl)-8-methylimidazo[1,5-a]pyrazin-1-yl)-N-(4-(trifluoromethyl)pyridin-2-yl)benzamide]
≥ 1000 nM: all assays above

CC#CC(=O)N[C@@H](C)c1nc(-c2ccc(C(=O)Nc3cc(C(F)(F)F)ccn3)cc2)c2c(C)nccn12 [Example 7, (S)-4-(3-(1-But-2-ynamidoethyl)-8-methylimidazo[1,5-a]pyrazin-1-yl)-N-(4-(trifluoromethyl)pyridin-2-yl)benzamide]
≥ 1000 nM: all assays above

CCCc1ccnc(NC(=O)c2ccc(-c3nc([C@H](C)NC(=O)/C=C/CN(C)C)n4ccnc(C)c34)cc2)c1 [Example 28, (S,E)-4-(3-(1-(4-(dimethylamino)but-2-enamido)ethyl)-8-methylimidazo[1,5-a]pyrazin-1-yl)-N-(4-propylpyridin-2-yl)benzamide]
≥ 1000 nM: all assays above

C=CC(=O)N1CCC[C@H]1c1nc(-c2ccc(C(=O)Nc3ccccn3)cc2)c2c(C)nccn12 [Example 19, (S)-4-(3-(1-acryloylpyrrolidin-2-yl)-8-methylimidazo[1,5-a]pyrazin-1-yl)-N-(pyridin-2-yl)benzamide]
≥ 1000 nM: all assays above

CCCc1ccnc(NC(=O)c2ccc(-c3nc([C@@H]4CCCCN4C(=O)/C=C/CN4CCCC4)n4ccnc(C)c34)cc2)c1 [Example 35, (S,E)-4-(8-methyl-3-(1-(4-(pyrrolidin-1-yl)but-2-enoyl)piperidin-2-yl)imidazo[1,5-a]pyrazin-1-yl)-N-(4-propylpyridin-2-yl)benzamide]
≥ 1000 nM: all assays above

Cc1nccn2c([C@@H]3CCCCN3C(=O)/C=C/CN(C)C)nc(-c3ccc(C(=O)Nc4cc(C(F)(F)F)ccn4)cc3)c12 [Example 37, (S,E)-4-(3-(1-(4-(dimethylamino)but-2-enoyl)piperidin-2-yl)-8-methylimidazo[1,5-a]pyrazin-1-yl)-N-(4-(trifluoromethyl)pyridin-2-yl)benzamide]
≥ 1000 nM: all assays above

C=CC(=O)N1CCCC[C@H]1c1nc(-c2ccc(C(=O)Nc3cc(CCC)ccn3)cc2)c2c(C)nccn12 [Example 2, (S)-4-(3-(1-Acryloylpiperidin-2-yl)-8-methylimidazo[1,5-a]pyrazin-1-yl)-N-(4-propylpyridin-2-yl)benzamide]
≥ 1000 nM: all assays above

CC#CC(=O)N1CCCC[C@H]1c1nc(-c2ccc(C(=O)Nc3cc(CCC)ccn3)cc2)c2c(C)nccn12 [Example 22, (S)-4-(3-(1-but-2-ynoylpiperidin-2-yl)-8-methylimidazo[1,5-a]pyrazin-1-yl)-N-(4-propylpyridin-2-yl)benzamide]
≥ 1000 nM: all assays above

C=CC(=O)N1CCC[C@H]1c1nc(-c2ccc(C(=O)Nc3cc(C#N)ccn3)cc2)c2c(C)nccn12 [Example 13, (S)-4-(3-(1-Acryloylpyrrolidin-2-yl)-8-methylimidazo[1,5-a]pyrazin-1-yl)-N-(4-cyanopyridin-2-yl)benzamide]
≥ 1000 nM: all assays above

CC#CC(=O)N1CCC[C@H]1c1nc(-c2ccc(C(=O)Nc3cc(C)ccn3)cc2)c2c(C)nccn12 [Example 15, (S)-4-(3-(1-but-2-ynoylpyrrolidin-2-yl)-8-methylimidazo[1,5-a]pyrazin-1-yl)-N-(4-methylpyridin-2-yl)benzamide]
≥ 1000 nM: all assays above

C=CC(=O)N[C@@H](C)c1nc(-c2ccc(C(=O)Nc3cc(CCC)ccn3)cc2)c2c(C)nccn12 [Example 23, (S)-4-(3-(1-acrylamidoethyl)-8-methylimidazo[1,5-a]pyrazin-1-yl)-N-(4-propylpyridin-2-yl)benzamide]
≥ 1000 nM: all assays above

C=CC(=O)N1CCC[C@H]1c1nc(-c2ccc(C(=O)Nc3cc(CCC)ccn3)cc2)c2c(C)nccn12 [Example 9, (S)-4-(3-(1-Acryloylpyrrolidin-2-yl)-8-methylimidazo[1,5-a]pyrazin-1-yl)-N-(4-propylpyridin-2-yl)benzamide]
≥ 1000 nM: all assays above

Cc1nccn2c([C@@H]3CCCN3C(=O)/C=C/CN3CCCC3)nc(-c3ccc(C(=O)Nc4ccccn4)cc3)c12 [Example 25, (S,E)-4-(8-methyl-3-(1-(4-(pyrrolidin-1-yl)but-2-enoyl)pyrrolidin-2-yl)imidazo[1,5-a]pyrazin-1-yl)-N-(pyridin-2-yl)benzamide]
≥ 1000 nM: all assays above

CCCc1ccnc(NC(=O)c2ccc(-c3nc([C@H](C)NC(=O)/C=C/COC)n4ccnc(C)c34)cc2)c1 [Example 36, (S,E)-4-(3-(1-(4-methoxybut-2-enamido)ethyl)-8-methylimidazo[1,5-a]pyrazin-1-yl)-N-(4-propylpyridin-2-yl)benzamide]
≥ 1000 nM: all assays above

COC/C=C/C(=O)N[C@@H](C)c1nc(-c2ccc(C(=O)Nc3cc(C(F)(F)F)ccn3)cc2)c2c(C)nccn12 [Example 6, (S,E)-4-(3-(1-(4-Methoxybut-2-enamido)ethyl)-8-methylimidazo[1,5-a]pyrazin-1-yl)-N-(4-(trifluoromethyl)pyridin-2-yl)benzamide]
≥ 1000 nM: all assays above
